Settings: for mass density: Fluid (supercritical or subcritical phases), Vibrating tube method; for vapor or sublimation pressure: Liquid

C=CCC [1-butene]
Settings | mass density [kg/m3]
388.24 K, 35013 kPa | 554.66
388.24 K, 40001 kPa | 562.62
393.24 K, 3099 kPa | 433.35
393.24 K, 4988 kPa | 452.98
393.24 K, 10001 kPa | 483.54
393.24 K, 14990 kPa | 503.16
393.24 K, 20005 kPa | 518.2
393.24 K, 24996 kPa | 530.47
393.24 K, 30000 kPa | 540.98
393.24 K, 35004 kPa | 550.18
393.24 K, 39996 kPa | 558.42
398.24 K, 3328 kPa | 420.6
398.24 K, 4984 kPa | 441.24
398.24 K, 9995 kPa | 475.63
398.24 K, 14988 kPa | 496.67
398.24 K, 20004 kPa | 512.53
398.24 K, 24995 kPa | 525.32
398.24 K, 29999 kPa | 536.22
398.24 K, 34991 kPa | 545.71
398.24 K, 40002 kPa | 554.2
403.24 K, 3570 kPa | 406.72
403.24 K, 4981 kPa | 428.43
403.24 K, 9984 kPa | 467.46
403.24 K, 14984 kPa | 490.08
403.24 K, 19994 kPa | 506.77
403.24 K, 24991 kPa | 520.14
403.24 K, 29990 kPa | 531.44
403.24 K, 34986 kPa | 541.24
403.24 K, 40010 kPa | 549.99
408.24 K, 3826 kPa | 391.44
408.24 K, 4981 kPa | 414.13
408.24 K, 9995 kPa | 459.14
408.24 K, 14983 kPa | 483.4
408.24 K, 19998 kPa | 501
408.24 K, 24993 kPa | 514.95
408.24 K, 29994 kPa | 526.66
408.24 K, 34991 kPa | 536.79
408.24 K, 40009 kPa | 545.77
413.24 K, 4097 kPa | 374.62
413.24 K, 4986 kPa | 397.78
413.24 K, 9991 kPa | 450.43
413.24 K, 14983 kPa | 476.61
413.24 K, 20002 kPa | 495.19
413.24 K, 24998 kPa | 509.75
413.24 K, 30000 kPa | 521.88
413.24 K, 34989 kPa | 532.32
413.24 K, 40005 kPa | 541.58
418.24 K, 4381 kPa | 356.12
418.24 K, 4990 kPa | 378.2
418.24 K, 9997 kPa | 441.54
418.24 K, 14996 kPa | 469.76
418.24 K, 20000 kPa | 489.3
418.24 K, 24996 kPa | 504.48
418.24 K, 29999 kPa | 517.07
418.24 K, 34991 kPa | 527.85
418.24 K, 40005 kPa | 537.36
423.24 K, 5017 kPa | 354.2
423.24 K, 9991 kPa | 431.88
423.24 K, 14996 kPa | 462.7
423.24 K, 20000 kPa | 483.36
423.24 K, 24995 kPa | 499.21
423.24 K, 29997 kPa | 512.25
423.24 K, 34989 kPa | 523.35
423.24 K, 39991 kPa | 533.12
428.24 K, 5020 kPa | 318.6
428.24 K, 9997 kPa | 422.29
428.24 K, 14995 kPa | 455.57
428.24 K, 19996 kPa | 477.35
428.24 K, 24996 kPa | 493.9
428.24 K, 29993 kPa | 507.4
428.24 K, 34987 kPa | 518.87
428.24 K, 39990 kPa | 528.9
433.24 K, 5019 kPa | 257.92
433.24 K, 9998 kPa | 412.15
433.24 K, 14987 kPa | 448.26
433.24 K, 19989 kPa | 471.28
433.24 K, 24994 kPa | 488.57
433.24 K, 29992 kPa | 502.55
433.24 K, 34997 kPa | 514.38
433.24 K, 40003 kPa | 524.73
438.24 K, 5011 kPa | 195.21
438.24 K, 9986 kPa | 401.49
438.24 K, 14995 kPa | 440.85
438.24 K, 19991 kPa | 465.16
438.24 K, 24999 kPa | 483.18
438.24 K, 29997 kPa | 497.7
438.24 K, 35010 kPa | 509.95
438.24 K, 39994 kPa | 520.5
443.24 K, 5018 kPa | 165.31
443.24 K, 14986 kPa | 433.23
443.24 K, 20005 kPa | 458.99
443.24 K, 24988 kPa | 477.7
443.24 K, 30010 kPa | 492.78
443.24 K, 35012 kPa | 505.33
443.24 K, 39996 kPa | 516.19
443.25 K, 9990 kPa | 390.35
448.24 K, 5018 kPa | 148
448.24 K, 14981 kPa | 425.58
448.24 K, 19992 kPa | 452.7
448.24 K, 24997 kPa | 472.33
448.24 K, 29998 kPa | 487.86
448.24 K, 34998 kPa | 500.83
448.24 K, 39998 kPa | 512
448.25 K, 9991 kPa | 378.84
453.24 K, 5018 kPa | 136.35
453.24 K, 14996 kPa | 418.01
453.24 K, 19984 kPa | 446.42
453.24 K, 24987 kPa | 466.88
453.24 K, 29994 kPa | 482.99
453.24 K, 34990 kPa | 496.33
453.24 K, 40001 kPa | 507.8

Settings | vapor or sublimation pressure [kPa]
395.35 K | 2678.7
403.65 K | 3085.8
409.68 K | 3413.2
415.36 K | 3739.2

Reference: the NIST ThermoML archive (doi:10.1016/j.fluid.2004.09.013)
